Source: patent US10729710B2, “Catecholamine prodrugs for use in the treatment of Parkinson's disease” (H. Lundbeck A/S, priority 2017, dated 2020)

Assays:
human D1 receptor = human D1 receptor (Homo sapiens (Human), UniProt P21728); assay: Dopamine D1 receptor agonism, HTRF cAMP assay; type: cell-based; conditions: HEK-293 cells expressing human D1 receptor, cAMP
Method: Dopamine D1 receptor agonism was measured using a HTRF cAMP from CisBio using the protocol developed by HD Biosciences (China). Briefly, the assay is a homogeneous time resolved-fluorescence resonance energy transfer (HTRF) assay that measures production of cAMP by cells in a competitive immunoassay between native cAMP produced by cells and cAMP-labeled with XL-665. A cryptate-labeled anti-cAMP antibody visualizes the tracer. The assay was performed in accordance with instructions from manufacturer.
Test compounds were added to wells of microplates (384 format). HEK-293 cells expressing the human D1 receptor were plated at 1000 cells/well and incubated 30 min at room temperature. cAMP-d2 tracer was added to wells and followed by addition of Anti-cAMP antibody-cryptate preparation and incubated for 1 h at room temperature in dark. HTRF cAMP was measured by excitation of the donor with 337 nm laser (the “TRF light unit”) and subsequent (delay time 100 microseconds) measurement of cryptate and d2 emission at 615 nm and 665 nm over a time window of 200 microseconds with a 2000 microseconds time window between repeats/100 flashes). HRTF measurements were performed on an Envision microplate reader (PerkinElmer). The HTRF signal was calculated as the emission-ratio at 665 nm over 615 nm. The HTRF ratio readout for test compounds was normalized to 0% and 100% stimulation using control wells with DMSO-solvent or 30 uM dopamine. Test compound potency (EC50) was estimated by nonlinear regression using the sigmoidal dose-response (variable slope) using Xlfit 4 (IDBS, Guildford, Surrey, UK, model 205). y=(A+((B−A)/(1+((C/x)^D)))) where y is the normalized HTRF ratio measurement for a given concentration of test compound, x is the concentration of test compound, A is the estimated efficacy at infinite compound dilution, and B is the maximal efficacy. C is the EC50 value and D is the Hill slope coefficient. EC50 estimates were obtained from an independent experiment and the logarithmic average was calculated. Dopamine D2 Receptor Agonism

human D2 receptor = human D2 receptor (Homo sapiens (Human), UniProt P14416); assay: Dopamine D2 receptor agonism, calcium mobilization assay; type: cell-based
Sequence of human D2 receptor (P14416 whole entry): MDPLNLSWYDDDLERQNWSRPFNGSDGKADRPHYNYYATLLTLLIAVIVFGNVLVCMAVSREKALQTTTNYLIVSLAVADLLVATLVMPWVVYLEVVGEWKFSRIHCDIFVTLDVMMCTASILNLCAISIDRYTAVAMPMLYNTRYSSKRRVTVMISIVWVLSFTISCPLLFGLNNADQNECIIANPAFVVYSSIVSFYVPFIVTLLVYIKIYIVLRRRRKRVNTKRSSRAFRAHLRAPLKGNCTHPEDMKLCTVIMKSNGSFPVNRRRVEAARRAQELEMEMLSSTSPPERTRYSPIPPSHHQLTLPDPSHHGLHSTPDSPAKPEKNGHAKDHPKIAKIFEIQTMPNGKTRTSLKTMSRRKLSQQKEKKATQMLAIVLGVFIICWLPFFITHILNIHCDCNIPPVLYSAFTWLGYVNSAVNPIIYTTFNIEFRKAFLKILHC
Method: Dopamine D2 receptor agonism was measured using a calcium mobilization assay protocol developed by HD Biosciences (China). Briefly, HEK293/G15 cells expressing human D2 receptor were plated at a density of 15000 cells/well in clear-bottomed, Matrigel-coated 384-well plates and grown for 24 hrs at 37° C. in the presence of 5% CO2. The cells were incubated with calcium-sensitive fluorescent dye, Fluo8, for 60-90 minutes at 37° C. in the dark. Test compounds were prepared at 3-fold concentrated solution in 1×HBSS buffer with Ca^2+ and Mg^2+. Calcium Flux signal was immediately recorded after compounds were added from compound plate to cell plate at FLIPR (Molecular Devices). The fluorescence data were normalized to yield responses for no stimulation (buffer) and full stimulation (1 μM of dopamine) of 0% and 100% stimulation, respectively. Test compound potency (EC50) was estimated by nonlinear regression using the sigmoidal dose-response (variable slope) using Xlfit 4 (IDBS, Guildford, Surrey, UK, model 205). y=(A+((B−A)/(1+((C/x)^D)))) where y is the normalized ratio measurement for a given concentration of test compound, x is the concentration of test compound, A is the estimated efficacy at infinite compound dilution, and B is the maximal efficacy. C is the EC50 value and D is the Hill slope coefficient. EC50 estimates were obtained from independent experiment and the logarithmic average was calculated.

human 5-HT2B receptor = human 5-HT2B receptor (Homo sapiens (Human), UniProt P41595); assay: 5-HT2B agonist activity assay (IP1 production, HTRF); type: cell-based
Sequence of human 5-HT2B receptor (P41595 whole entry): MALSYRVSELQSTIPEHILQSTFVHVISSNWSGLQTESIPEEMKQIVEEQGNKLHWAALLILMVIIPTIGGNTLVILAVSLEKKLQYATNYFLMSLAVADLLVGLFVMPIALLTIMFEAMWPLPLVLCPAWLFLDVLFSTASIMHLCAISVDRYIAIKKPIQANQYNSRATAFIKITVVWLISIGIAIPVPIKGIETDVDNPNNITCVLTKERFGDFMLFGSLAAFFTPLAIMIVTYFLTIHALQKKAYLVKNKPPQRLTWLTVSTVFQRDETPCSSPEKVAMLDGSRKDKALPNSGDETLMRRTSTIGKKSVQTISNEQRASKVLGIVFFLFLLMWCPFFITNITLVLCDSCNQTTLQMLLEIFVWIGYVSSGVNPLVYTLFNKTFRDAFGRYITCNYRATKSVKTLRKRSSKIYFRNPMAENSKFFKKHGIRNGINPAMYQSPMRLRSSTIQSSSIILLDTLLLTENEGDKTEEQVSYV
Method: Evaluation of the agonist activity of compounds (I), (Ia) and (Ib) at the human 5-HT2B receptor was performed by Eurofins/Cerep (France) measuring the compound effects on inositol monophosphate (IP1) production using the HTRF detection method. Briefly, the human 5-HT2B receptor was expressed in transfected CHO cells. The cells were suspended in a buffer containing 10 mM Hepes/NaOH (pH 7.4), 4.2 mM KCl, 146 mM NaCl, 1 mM CaCl2, 0.5 mM MgCl2, 5.5 mM glucose and 50 mM LiCl, then distributed in microplates at a density of 4100 cells/well and incubated for 30 min at 37° C. in the presence of buffer (basal control), test compound or reference agonist. For stimulated control measurement, separate assay wells contained 1 μM 5-HT. Following incubation, the cells were lysed and the fluorescence acceptor (fluorophen D2-labeled IP1) and fluorescence donor (anti-IP1 antibody labeled with europium cryptate) were added. After 60 min at room temperature, the fluorescence transfer was measured at lambda(Ex) 337 nm and lambda(Em) 620 and 665 nm using a microplate reader (Rubystar, BMG). The IP1 concentration was determined by dividing the signal measured at 665 nm by that measured at 620 nm (ratio). The results were expressed as a percent of the control response to 1 μM 5-HT. The standard reference agonist was 5-HT, which was tested in each experiment at several concentrations to generate a concentration-response curve from which its EC50 value is calculated as described above for dopamine functional assays.

[1] = PK experiments in rats: plasma compound (I) after oral dosing of prodrugs; type: in vivo, Han Wistar rats; conditions: Wistar rats, FIG. 2, doses equal to 287 μg/kg of compound (I)
Method: Plasma was placed on water-ice following collection. Final storage at approximately −70° C.
Mobile phase B: Acetonitrile. […] Flow rate 0.5 mL/min.
The rats had unrestricted access to the diet.
Mobile phase B: Acetonitrile+0.2% formic acid. […] Flow rate 0.3 mL/min.
Han Wistar rats were supplied by Envigo, UK. […] The rats received a standard laboratory diet Teklad 2014C. The rats had unrestricted access to the diet.

male CD rats = assay: Rat locomotor activity (hyperactivity) assay, open field; type: in vivo; conditions: for time until locomotor effect is gone: apomorphine: post administration, pramipexole: after appearance of effect, (Id-ia): recording ended at 415-minute time point
Method: In total, 206 male CD rats (Charles River, Germany) weighing 200-250 grams (165-190 grams upon arrival) were used in the study. Animals were housed at a standard temperature (22±1° C.) and in a light-controlled environment (lights on from 7 am to […]) with ad libitum access to food and water. The experiment described below was performed in accordance with the standard operating procedures of Charles River Discovery Research Services Finland Ltd. and in accordance with the national Animal Experiment Board of Finland (Eläinkoelautakunta, ELLA) authority on animal testing.
The test device is a square Plexiglass-arena (measuring 40×40×40 cm), in which the movement paths of the rats are recorded by an activity monitor (Med. Associates Inc.). Before the test period is initiated, rats are habituated to their test cage for 60 minutes. Upon completion of habituation, animals were treated with either compound or vehicle and placed back into the open field apparatus. The main test parameter measured is ambulatory distance (recorded in 5 minute segments). Overall time of measurement after receiving initial treatment was 360 minutes. Total follow up period in the study was 420 min, including 60 min of habituation.

Sequence of human D1 receptor (P21728 whole entry): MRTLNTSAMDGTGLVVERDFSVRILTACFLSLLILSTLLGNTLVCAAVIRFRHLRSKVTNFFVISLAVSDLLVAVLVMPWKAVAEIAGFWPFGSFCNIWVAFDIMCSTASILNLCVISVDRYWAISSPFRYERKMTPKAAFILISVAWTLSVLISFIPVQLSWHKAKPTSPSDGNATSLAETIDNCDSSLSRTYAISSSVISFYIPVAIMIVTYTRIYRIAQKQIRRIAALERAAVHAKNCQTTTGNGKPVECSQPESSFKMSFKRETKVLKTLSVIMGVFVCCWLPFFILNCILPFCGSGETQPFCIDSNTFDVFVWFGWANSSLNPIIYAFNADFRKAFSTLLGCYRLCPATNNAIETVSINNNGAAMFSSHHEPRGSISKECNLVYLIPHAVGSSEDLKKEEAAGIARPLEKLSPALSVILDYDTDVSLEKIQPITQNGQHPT

CCCN1CCC[C@@H]2CC3=C(CCCC3=O)C[C@H]21 [(Ia), reference compound]
EC50 (human D1 receptor): > 1 µM | EC50 (human D2 receptor; HEK293/G15 cells expressing human D2 receptor, calcium flux): > 1 µM | 5-HT2B agonist effect at concentration indicated (human 5-HT2B receptor; @30 uM, percent of control response to 1 μM 5-HT): 58% | EC50 (human 5-HT2B receptor; CHO cells, IP1 production): > 6 µM | plasma profile of compound (I) after oral dosing (in words) [1]: early and high peak concentrations of compound (I)

CCCN1CCC[C@@H]2Cc3c(ccc4c3OCO4)C[C@H]21 [(Ib), reference compound]
EC50 (human D1 receptor): > 1 µM | Emax (human D2 receptor; normalized to 1 μM dopamine = 100%): 100% | 5-HT2B agonism (in words) (human 5-HT2B receptor; example 3): agonist of the 5-HT2B receptor | Emax (human 5-HT2B receptor; read-out: 5-HT2B Emax): 79% | plasma profile of compound (I) after oral dosing (in words) [1]: early and high peak concentrations of compound (I)

CCCN1CCC[C@@H]2Cc3c(ccc(OC(=O)C(C)(C)C)c3OC(=O)C(C)(C)C)C[C@H]21 [(Ic), reference compound]
5-HT2B effect at concentration indicated (no asterisk) (human 5-HT2B receptor; @10 μM): −5%@10 | plasma profile of compound (I) after oral dosing (in words) [1]: extremely low

CCCN[C@H]1CCc2nc(N)sc2C1 [Pramipexole, pramipexole, reference compound]
total distance travelled vs vehicle (male CD rats; FIG. 4, (Id-ia) p.o., apomorphine 3 mg/kg s.c., pramipexole 0.3 mg/kg s.c.): significantly increased activity | time until locomotor effect is gone (male CD rats): 2.5 h

CN1CCc2cccc3c2[C@H]1Cc1ccc(O)c(O)c1-3 [apomorphine, reference compound]
time until locomotor effect is gone (male CD rats): 1.5 h
